Experiments:
[1] = molecular target: DPP4 (Homo sapiens, UniProt P27487); experiment: DPP4 inhibition, fluorogenic substrate H-Gly-Pro-AMC; assay type: biochemical; design: purchased R&D Systems; details: for inhibition at 1 µM: read-out: hDPP4 inhibition % at 1 μM
[2] = molecular target: T1, Recombinant human FAP (Homo sapiens, UniProt Q12884); experiment: FAP inhibition, fluorogenic substrate Z-Gly-Pro-AMC; assay type: biochemical; details: for inhibition at 1 µM: read-out: hFAP inhibition % at 1 μM
T1 construct: purchased R&D systems
T1 sequence (Q12884 1-760): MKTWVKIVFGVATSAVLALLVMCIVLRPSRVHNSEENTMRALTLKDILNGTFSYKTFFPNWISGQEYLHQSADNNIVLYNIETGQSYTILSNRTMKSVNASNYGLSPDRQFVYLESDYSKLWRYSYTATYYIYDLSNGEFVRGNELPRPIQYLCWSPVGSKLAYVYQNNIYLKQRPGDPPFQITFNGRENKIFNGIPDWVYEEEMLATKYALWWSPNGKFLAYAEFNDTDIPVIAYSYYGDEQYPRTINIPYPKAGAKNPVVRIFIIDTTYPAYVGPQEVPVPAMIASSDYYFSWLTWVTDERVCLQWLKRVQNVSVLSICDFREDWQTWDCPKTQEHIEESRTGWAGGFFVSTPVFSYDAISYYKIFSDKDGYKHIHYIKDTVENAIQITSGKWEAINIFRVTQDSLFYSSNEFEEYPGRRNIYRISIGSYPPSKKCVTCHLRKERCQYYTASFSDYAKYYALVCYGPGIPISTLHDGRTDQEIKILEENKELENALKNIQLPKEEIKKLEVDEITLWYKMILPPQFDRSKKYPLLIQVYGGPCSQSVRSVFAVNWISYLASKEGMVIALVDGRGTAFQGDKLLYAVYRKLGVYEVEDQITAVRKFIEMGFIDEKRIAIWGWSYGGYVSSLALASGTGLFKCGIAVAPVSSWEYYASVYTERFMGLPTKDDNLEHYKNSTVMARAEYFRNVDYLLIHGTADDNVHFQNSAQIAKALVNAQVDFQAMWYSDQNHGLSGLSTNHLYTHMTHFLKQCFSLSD
Method in brief: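 Recombinant human FAP, 10 ng per reaction, in 50 mM Tris pH 7.5 with 1 M NaCl and 1 mg/ml BSA at 25° C; substrate Z-Gly-Pro-AMC, ≤0.1% DMSO. AMC fluorescence read at ex 380/em 460 nm; % signal-rate decrease vs no-inhibitor control, 8-point curves fitted to a four-parameter logistic for IC50.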

[3] = 25° C., Z-Gly-Pro-AMC substrate
[4] = recombinant human FAP, substrate Z-Gly-Pro-AMC

Chain of DPP4 (P27487 whole entry): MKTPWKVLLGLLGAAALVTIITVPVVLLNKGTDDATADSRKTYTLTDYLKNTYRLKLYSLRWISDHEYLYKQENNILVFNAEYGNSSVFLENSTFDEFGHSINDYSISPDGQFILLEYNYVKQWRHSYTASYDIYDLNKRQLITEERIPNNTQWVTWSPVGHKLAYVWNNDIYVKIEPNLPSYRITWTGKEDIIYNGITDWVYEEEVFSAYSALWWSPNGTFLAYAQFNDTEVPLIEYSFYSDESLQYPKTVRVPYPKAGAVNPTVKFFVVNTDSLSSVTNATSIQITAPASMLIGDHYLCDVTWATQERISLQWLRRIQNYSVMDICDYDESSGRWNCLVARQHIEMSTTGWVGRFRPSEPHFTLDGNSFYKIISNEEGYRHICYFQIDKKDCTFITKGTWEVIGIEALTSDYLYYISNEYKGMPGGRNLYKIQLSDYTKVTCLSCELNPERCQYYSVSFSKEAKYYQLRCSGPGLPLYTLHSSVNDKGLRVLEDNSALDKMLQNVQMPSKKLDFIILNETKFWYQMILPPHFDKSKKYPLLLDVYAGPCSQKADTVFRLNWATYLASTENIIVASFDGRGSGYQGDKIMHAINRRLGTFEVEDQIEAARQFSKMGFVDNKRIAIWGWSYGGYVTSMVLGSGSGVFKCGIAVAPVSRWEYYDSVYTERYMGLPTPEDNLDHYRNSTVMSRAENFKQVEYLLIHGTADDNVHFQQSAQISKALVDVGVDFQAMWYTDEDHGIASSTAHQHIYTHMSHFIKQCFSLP

Compound | IC50 ([1]; recombinant human DPP4) [nM] | IC50 [2, 4] [nM] | also measured
N#C[C@@H]1CCCN1C(=O)CN1CC[C@H](Oc2cc(OCc3ccccc3)ccn2)C1 [Example 93, (S)-1-(2-((S)-3-((4-(benzyloxy)pyridin-2-yl)oxy)pyrrolidin-1-yl)acetyl)pyrrolidine-2-carbonitrile] | – | – | inhibition at 1 µM [1]: 11.6%; IC50 [2, 3]: 69.6 nM
N#C[C@@H]1CCCN1C(=O)CN1CC[C@H](Oc2ccnc3cc(C(F)(F)F)ccc23)C1 [Example 94, (S)-1-(2-((S)-3-((7-(trifluoromethyl)quinolin-4-yl)oxy)pyrrolidin-1-yl)acetyl)pyrrolidine-2-carbonitrile] | – | – | inhibition at 1 µM [1]: 6.9%; IC50 [2, 3]: 63.3 nM
N#C[C@@H]1CCCN1C(=O)CN1CC[C@H](Oc2cccc3cc4ccccc4nc23)C1 [Example 96, (S)-1-(2-((S)-3-(acridin-4-yloxy)pyrrolidin-1-yl)acetyl)pyrrolidine-2-carbonitrile] | – | – | inhibition at 1 µM [1]: 11.5%; IC50 [2, 3]: 270 nM
N#C[C@@H]1CCCN1C(=O)CN1CC[C@H](Oc2ccccc2-c2nc3ccccc3o2)C1 [Example 97, (S)-1-(2-((S)-3-(2-(benzo[d]oxazol-2-yl)phenoxy)pyrrolidin-1-yl)acetyl)pyrrolidine-2-carbonitrile] | – | – | inhibition at 1 µM [1]: 8.3%; inhibition at 1 µM [2]: 36.3%
CC(=O)N1CCN(c2ccc(O[C@H]3CCN(CC(=O)N4CCC[C@H]4C#N)C3)cc2)CC1 [Example 98, (S)-1-(2-((S)-3-(4-(4-acetylpiperazin-1-yl)phenoxy)pyrrolidin-1-yl)acetyl)pyrrolidine-2-carbonitrile] | – | – | inhibition at 1 µM [1]: 9.1%; inhibition at 1 µM [2]: 63.2%
N#C[C@@H]1CCCN1C(=O)CN1CC[C@H](Oc2ccccc2C(=O)Nc2ccccc2)C1 [Example 99, 2-(((S)-1-(2-((S)-2-cyanopyrrolidin-1-yl)-2-oxoethyl)pyrrolidin-3-yl)oxy)-N-phenylbenzamide] | – | – | inhibition at 1 µM [1]: 10.9%; inhibition at 1 µM [2]: 18.2%
N#C[C@@H]1CCCN1C(=O)CN1CC[C@H](Oc2cc(-c3ccc(Br)cc3)no2)C1 [Example 102, (S)-1-(2-((S)-3-((3-(4-bromophenyl)isoxazol-5-yl)oxy)pyrrolidin-1-yl)acetyl)pyrrolidine-2-carbonitrile] | – | – | inhibition at 1 µM [1]: 6.2%; inhibition at 1 µM [2]: 52.4%
N#C[C@@H]1C[C@@H]2C[C@@H]2N1C(=O)CN1CCC(Nc2ccnc3ccccc23)CC1 [Example 112, (1S,3S,5S)-2-(2-(4-(quinolin-4-ylamino)piperidin-1-yl)acetyl)-2-azabicyclo[3.1.0]hexane-3-carbonitrile] | – | – | hDPP4 inhibition % at 1 μM [1]: No inhibition**; IC50 [2, 3]: 18.8 nM
N#C[C@@H]1CCCN1C(=O)CN1CCC(Nc2cncc3ccoc23)CC1 [Example 116, (S)-1-(2-(4-(furo[3,2-c]pyridin-7-ylamino)piperidin-1-yl)acetyl)pyrrolidine-2-carbonitrile] | – | – | hDPP4 inhibition % at 1 μM [1]: No inhibition**; inhibition at 1 µM [2]: 82.4%
N#C[C@@H]1CCCN1C(=O)CN1CCC(Oc2cnc3ccccc3c2)CC1 [Example 117, (S)-1-(2-(4-(quinolin-3-yloxy)piperidin-1-yl)acetyl)pyrrolidine-2-carbonitrile] | – | – | hDPP4 inhibition % at 1 μM [1]: No inhibition**; IC50 [2, 3]: 22.9 nM
N#C[C@@H]1CCCN1C(=O)CN1CCC(Oc2ccc3ncccc3c2)CC1 [Example 120, (S)-1-(2-(4-(quinolin-6-yloxy)piperidin-1-yl)acetyl)pyrrolidine-2-carbonitrile] | – | – | hDPP4 inhibition % at 1 μM [1]: No inhibition**; IC50 [2, 3]: 11.8 nM
Cc1ccc2ncccc2c1NC1CCN(CC(=O)N2C[C@@H](F)C[C@H]2C#N)CC1 [Example 134, (2S,4S)-4-fluoro-1-(2-(4-((6-methylquinolin-5-yl)amino)piperidin-1-yl)acetyl)pyrrolidine-2-carbonitrile] | – | – | IC50 ([1]; 25° C., H-Gly-Pro-AMC substrate): 8010 nM; IC50 [2, 3]: 343 nM
COc1ccc2ncccc2c1N[C@H]1CCN(CC(=O)N2CCC[C@H]2C#N)C1 [Example 240, (2S)-1-[2-[(3S)-3-[(6-methoxy-5-quinolyl)amino]pyrrolidin-1-yl]acetyl]pyrrolidine-2-carbonitrile] | > 10000 | 20 | –
CN(c1cncc2ccoc12)C1CCN(CC(=O)N2CCC[C@H]2C#N)CC1 [Example 312, (2S)-1-[2-[4-[furo[3,2-c]pyridin-7-yl(methyl)amino]-1-piperidyl]acetyl]pyrrolidine-2-carbonitrile] | > 10000 | 31.8 | –
CN(c1cccc2cnccc12)C1CCN(CC(=O)N2C[C@@H](F)C[C@H]2C#N)CC1 [Example 318, (2S,4S)-4-fluoro-1-[2-[4-[5-isoquinolyl(methyl)amino]-1-piperidyl]acetyl]pyrrolidine-2-carbonitrile] | > 10000 | 18.2 | –
CN(c1cccc2ccncc12)C1CCN(CC(=O)N2C[C@@H](F)C[C@H]2C#N)CC1 [Example 320, (2S,4S)-4-fluoro-1-[2-[4-[8-isoquinolyl(methyl)amino]-1-piperidyl]acetyl]pyrrolidine-2-carbonitrile] | 410 | 46.2 | –
N#C[C@@H]1C[C@H](F)CN1C(=O)CN1CCC(Nc2ccc(OCc3ccccc3)c3ncccc23)CC1 [Example 332, (2S,4S)-1-[2-[4-[(8-benzyloxy-5-quinolyl)amino]-1-piperidyl]acetyl]-4-fluoro-pyrrolidine-2-carbonitrile] | 6200 | 5.5 | –
N#C[C@@H]1C[C@H](F)CN1C(=O)CN1CCC(Nc2cccc3ncc(Cl)cc23)CC1 [Example 333, (2S,4S)-1-[2-[4-[(3-chloro-5-quinolyl)amino]-1-piperidyl]acetyl]-4-fluoro-pyrrolidine-2-carbonitrile] | 7540 | 2.6 | –
N#Cc1ccc2c(NC3CCN(CC(=O)N4C[C@@H](F)C[C@H]4C#N)CC3)cccc2n1 [Example 335, 5-[[1-[2-oxo-2-[(2S,4S)-2-cyano-4-fluoro-pyrrolidin-1-yl]ethyl]-4-piperidyl]amino]quinoline-2-carbonitrile] | 7330 | 5.9 | –
N#C[C@@H]1C[C@H](F)CN1C(=O)CN1CCC(Nc2ccc3cnccc3c2)CC1 [Example 341, (2S,4S)-4-fluoro-1-[2-[4-(6-isoquinolylamino)-1-piperidyl]acetyl]pyrrolidine-2-carbonitrile] | > 10000 | 22.7 | –
N#C[C@@H]1C[C@H](F)CN1C(=O)CN1CCC(Oc2cccc3ncc(F)cc23)CC1 [Example 416, (2S,4S)-4-fluoro-1-[2-[4-[(3-fluoro-5-quinolyl)oxy]-1-piperidyl]acetyl]pyrrolidine-2-carbonitrile] | 6840 | 2.3 | –

Now from value to compound, other results behind:

IC50 ([1]; recombinant human DPP4) [nM] | IC50 [2, 4] [nM] | Compound | also measured
> 10000 | 47.1 | CN(c1ccc2ccccc2n1)C1CCN(CC(=O)N2CCC[C@H]2C#N)CC1 [Example 307, (2S)-1-[2-[4-[methyl(2-quinolyl)amino]-1-piperidyl]acetyl]pyrrolidine-2-carbonitrile] | –
> 10000 | 96.8 | CN(c1ccnc2ccccc12)C1CCN(CC(=O)N2CCC[C@H]2C#N)CC1 [Example 308, (2S)-1-[2-[4-[methyl(4-quinolyl)amino]-1-piperidyl]acetyl]pyrrolidine-2-carbonitrile] | –
> 10000 | 68.3 | CN(c1cccc2ncccc12)C1CCN(CC(=O)N2CCC[C@H]2C#N)CC1 [Example 309, (2S)-1-[2-[4-[methyl(5-quinolyl)amino]-1-piperidyl]acetyl]pyrrolidine-2-carbonitrile] | –

From patent US11655235B2, “Pyrrolidine and piperidine compounds” (YUHAN CORPORATION, priority 2019, dated 2023)
